Patent publication US20260200905A1, “MICROBIOCIDAL TETRAHYDROISOQUINOLINE DERIVATIVES” (SYNGENTA CROP PROTECTION AG, priority 2022, published 2026)

Tested on: Mycosphaerella arachidis (Cercospora arachidicola)
Experiment: Mycosphaerella arachidis (Cercospora arachidicola) / liquid culture (early leaf spot)
Format: cell-based
Conditions: growth inhibition photometrically 4 to 5 days after application, read-out: control of Mycosphaerella arachidis
Protocol: (§1) Example B6: Mycosphaerella arachidis (Cercospora arachidicola)/Liquid Culture (Early Leaf Spot) Conidia of the fungus from cryogenic storage are directly mixed into nutrient broth (PDB potato dextrose broth). After placing a (DMSO) solution of test compound into a microtiter plate (96-well format), the nutrient broth containing the fungal spores is added. The test plates are incubated at 24° C. and the inhibition of growth is determined photometrically 4 to 5 days after application.

Structure (SMILES)	inhibition of growth at 20 ppm
Cn1c(Cl)nc(C2CN(C(=O)c3cc(-c4ccc(F)cc4F)on3)Cc3ccccc32)c1Cl (stereo not drawn) [Compound P-10, [4-(2,5-dichloro-1-methyl-imidazol-4-yl)-3,4-dihydro-1H-isoquinolin-2-yl]-[5-(2,4-difluorophenyl)isoxazol-3-yl]methanone]	≥ 80%
Cc1ccncc1C1CN(C(=O)c2cc(-c3ccc(F)cc3F)on2)Cc2ccccc21 (stereo not drawn) [Compound P-14, [5-(2,4-difluorophenyl)isoxazol-3-yl]-[4-(4-methyl-3-pyridyl)-3,4-dihydro-1H-isoquinolin-2-yl]methanone]	≥ 80%
Cc1ncccc1C1CN(C(=O)c2cc(-c3ccc(F)cc3F)on2)Cc2ccccc21 (stereo not drawn) [Compound P-13, [5-(2,4-difluorophenyl)isoxazol-3-yl]-[4-(2-methyl-3-pyridyl)-3,4-dihydro-1H-isoquinolin-2-yl]methanone]	≥ 80%

Tested on: Mycosphaerella graminicola (Septoria tritici)
Experiment: Mycosphaerella graminicola (Septoria tritici) / liquid culture (Septoria blotch)
Format: cell-based
Conditions: Zymoseptoria tritici, growth inhibition photometrically 4 to 5 days after application, read-out: control of Mycosphaerella graminicola
Protocol: as §1, with “B12:” for “B6:”, “graminicola (Septoria tritici)/Liquid” for “arachidis (Cercospora arachidicola)/Liquid”, “(Septoria Blotch)” for “(Early Leaf Spot)”

Structure (SMILES)	inhibition of growth at 20 ppm
Cc1c(C2CN(C(=O)c3cc(-c4ccc(F)cc4F)on3)Cc3ccccc32)cc(C#N)n1C (stereo not drawn) [Compound P-20, 4-[2-[5-(2,4-difluorophenyl)isoxazole-3-carbonyl]-3,4-dihydro-1H-isoquinolin-4-yl]-1,5-dimethyl-pyrrole-2-carbonitrile]	≥ 80%
Cn1c(Cl)nc(C2CN(C(=O)c3cc(-c4ccc(F)cc4F)on3)Cc3ccccc32)c1Cl (stereo not drawn) [Compound P-10, [4-(2,5-dichloro-1-methyl-imidazol-4-yl)-3,4-dihydro-1H-isoquinolin-2-yl]-[5-(2,4-difluorophenyl)isoxazol-3-yl]methanone]	≥ 80%
Cn1cc(C2CN(C(=O)c3cc(-c4ccc(F)cc4F)on3)Cc3ccccc32)nn1 (stereo not drawn) [Compound P-35, [5-(2,4-difluorophenyl)isoxazol-3-yl]-[4-(1-methyltriazol-4-yl)-3,4-dihydro-1H-isoquinolin-2-yl]methanone]	≥ 80%
Cc1ccncc1C1CN(C(=O)c2cc(-c3ccc(F)cc3F)on2)Cc2ccccc21 (stereo not drawn) [Compound P-14, [5-(2,4-difluorophenyl)isoxazol-3-yl]-[4-(4-methyl-3-pyridyl)-3,4-dihydro-1H-isoquinolin-2-yl]methanone]	≥ 80%
Cc1c(C2CN(C(=O)c3nnc(-c4ccc(F)cc4F)s3)Cc3ccccc32)cc(C#N)n1C (stereo not drawn) [Compound P-28, 4-[2-(5-(2,4-difluorophenyl)-1,3,4-thiadiazole-2-carbonyl]-3,4-dihydro-1H-isoquinolin-4-yl]-1,5-dimethyl-pyrrole-2-carbonitrile]	≥ 80%
O=C(c1cc(-c2ccccc2)on1)N1Cc2ccccc2C(c2ccc(F)nc2)C1 (stereo not drawn) [Compound P-34, [4-(6-fluoro-3-pyridyl)-3,4-dihydro-1H-isoquinolin-2-yl]-(5-phenylisoxazol-3-yl)methanone]	≥ 80%
Cc1nc(C2CN(C(=O)c3cc(-c4ccc(F)cc4F)on3)Cc3ccccc32)c(Cl)n1C (stereo not drawn) [Compound P-17, [4-(5-chloro-1,2-dimethyl-imidazol-4-yl)-3,4-dihydro-1H-isoquinolin-2-yl]-[5-(2,4-difluorophenyl)isoxazol-3-yl]methanone]	≥ 80%
Cc1c(C2CN(C(=O)c3cc(-c4ccc(F)cc4F)on3)Cc3ccccc32)nc(Cl)n1C (stereo not drawn) [Compound P-16, [4-(2-chloro-1,5-dimethyl-imidazol-4-yl)-3,4-dihydro-1H-isoquinolin-2-yl]-[5-(2,4-difluorophenyl)isoxazol-3-yl]methanone]	≥ 80%
O=C(c1cc(-c2ccc(F)cc2F)on1)N1Cc2ccccc2C(c2cnccc2Cl)C1 (stereo not drawn) [Compound P-24, [4-(4-chloro-3-pyridyl)-3,4-dihydro-1H-isoquinolin-2-yl]-[5-(2,4-difluorophenyl)isoxazol-3-yl]methanone]	≥ 80%
O=C(c1cc(-c2ccccc2)on1)N1Cc2ccccc2C(c2cnccc2Cl)C1 (stereo not drawn) [Compound P-30, [4-(4-chloro-3-pyridyl)-3,4-dihydro-1H-isoquinolin-2-yl]-(5-phenylisoxazol-3-yl)methanone]	≥ 80%
Cn1cnc(C2CN(C(=O)c3cc(-c4ccc(F)cc4F)on3)Cc3ccccc32)n1 (stereo not drawn) [Compound P-33, [5-(2,4-difluorophenyl)isoxazol-3-yl]-[4-(1-methyl-1,2,4-triazol-3-yl)-3,4-dihydro-1H-isoquinolin-2-yl]methanone]	≥ 80%
Cc1cncc(C2CN(C(=O)c3cc(-c4ccc(F)cc4F)on3)Cc3ccccc32)c1 (stereo not drawn) [Compound P-22, [5-(2,4-difluorophenyl)isoxazol-3-yl]-[4-(5-methyl-3-pyridyl)-3,4-dihydro-1H-isoquinolin-2-yl]methanone]	≥ 80%
Cc1ncccc1C1CN(C(=O)c2cc(-c3ccc(F)cc3F)on2)Cc2ccccc21 (stereo not drawn) [Compound P-13, [5-(2,4-difluorophenyl)isoxazol-3-yl]-[4-(2-methyl-3-pyridyl)-3,4-dihydro-1H-isoquinolin-2-yl]methanone]	≥ 80%
Cc1c(C2CN(C(=O)c3cc(-c4ccc(F)cc4)on3)Cc3ccccc32)cc(C#N)n1C (stereo not drawn) [Compound P-18, 4-[2-[5-(4-fluorophenyl)isoxazole-3-carbonyl]-3,4-dihydro-1H-isoquinolin-4-yl]-1,5-dimethyl-pyrrole-2-carbonitrile]	≥ 80%
CC1(c2cccnc2)CN(C(=O)c2cc(-c3ccc(F)cc3F)on2)Cc2ccccc21 (stereo not drawn) [Compound P-27, [5-(2,4-difluorophenyl)isoxazol-3-yl]-[4-methyl-4-(3-pyridyl)-1,3-dihydroisoquinolin-2-yl]methanone]	≥ 80%
O=C(c1cc(-c2ccc(F)cc2F)on1)N1Cc2ccccc2C(c2cccnn2)C1 (stereo not drawn) [Compound P-36, [5-(2,4-difluorophenyl)isoxazol-3-yl]-(4-pyridazin-3-yl-3,4-dihydro-1H-isoquinolin-2-yl)methanone]	≥ 80%
Cc1ncc(C2CN(C(=O)c3cc(-c4ccccc4)on3)Cc3ccccc32)cc1Cl (stereo not drawn) [Compound P-29, [4-(5-chloro-6-methyl-3-pyridyl)-3,4-dihydro-1H-isoquinolin-2-yl]-(5-phenylisoxazol-3-yl)methanone]	≥ 80%
Cc1nc(C2CN(C(=O)c3cc(-c4ccccc4)on3)Cc3ccccc32)c(Cl)n1C (stereo not drawn) [Compound P-31, [4-(5-chloro-1,2-dimethyl-imidazol-4-yl)-3,4-dihydro-1H-isoquinolin-2-yl]-(5-phenylisoxazol-3-yl)methanone]	≥ 80%
Cn1nc(C2CN(C(=O)c3cc(-c4ccc(F)cc4F)on3)Cc3ccccc32)cc1Br (stereo not drawn) [Compound P-21, [4-(5-bromo-1-methyl-pyrazol-3-yl)-3,4-dihydro-1H-isoquinolin-2-yl]-[5-(2,4-difluorophenyl)isoxazol-3-yl]methanone]	≥ 80%
CC1(c2cccnc2)CN(C(=O)c2cc(-c3ccccc3)on2)Cc2ccccc21 (stereo not drawn) [Compound P-32, [4-methyl-4-(3-pyridyl)-1,3-dihydroisoquinolin-2-yl]-(5-phenylisoxazol-3-yl)methanone]	≥ 80%
Cc1nc(C2CN(C(=O)c3cc(-c4ccc(F)cc4F)on3)Cc3ccccc32)nn1C (stereo not drawn) [Compound P-39, [5-(2,4-difluorophenyl)isoxazol-3-yl]-[4-(1,5-dimethyl-1,2,4-triazol-3-yl)-3,4-dihydro-1H-isoquinolin-2-yl]methanone]	≥ 80%
Cc1nc(C2CN(C(=O)c3cc(-c4ccc(F)cc4F)on3)Cc3ccccc32)no1 (stereo not drawn) [Compound P-25, [5-(2,4-difluorophenyl)isoxazol-3-yl]-[4-(5-methyl-1,2,4-oxadiazol-3-yl)-3,4-dihydro-1H-isoquinolin-2-yl]methanone]	≥ 80%
Cc1ncc(C2CN(C(=O)c3cc(-c4ccc(F)cc4F)on3)Cc3ccccc32)cc1Cl (stereo not drawn) [Compound P-23, [4-(5-chloro-6-methyl-3-pyridyl)-3,4-dihydro-1H-isoquinolin-2-yl]-[5-(2,4-difluorophenyl)isoxazol-3-yl]methanone]	≥ 80%
Cc1c(C2CN(C(=O)c3cc(-c4ccccc4)on3)Cc3ccccc32)cc(C#N)n1C (stereo not drawn) [Compound P-26, 1,5-dimethyl-4-[2-(5-phenylisoxazole-3-carbonyl)-3,4-dihydro-1H-isoquinolin-4-yl]pyrrole-2-carbonitrile]	≥ 80%
